Data taken from ChEMBL document CHEMBL1909046, “DrugMatrix in vitro pharmacology data”.

Key:
[1] = DRUGMATRIX: Purinergic P2X radioligand binding (ligand: [3H] alpha, beta-Methylene-ATP); assay type: cell membranes, Oryctolagus cuniculus, New Zealand albino, Urinary bladder, Membrane; details: Not Active = under 50% inhibition at 10 µM
[2] = target: Protein phosphatase 3 catalytic subunit alpha (Homo sapiens, UniProt Q08209); design: species or system Escherichia coli;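 also: inhibition of calcineurin (PP2B) enzyme activity, measured with DiFMUP as the substrate; in other assays of this panel Not Active means under 50% inhibition at 10 µM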
[3] = target: Melanocortin receptor 4 (Homo sapiens, UniProt P32245); assay type: cell membranes, Membrane; details: hek293; also: in other assays of this panel Not Active means under 50% inhibition at 10 µM
[4] = DRUGMATRIX: Calcium Channel Type L, Benzothiazepine radioligand binding (ligand: [3H] Diltiazem); assay type: cell membranes, Rattus norvegicus, Wistar, Brain, Membrane; details: Not Active = under 50% inhibition at 10 µM
[5] = target: T1, Receptor-type tyrosine-protein phosphatase C (Homo sapiens, UniProt P08575); design: species or system Escherichia coli;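 also: inhibition of CD45 enzyme activity measured using DiFMUP as substrate; in other assays of this panel Not Active means under 50% inhibition at 10 µM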
T1 sequence (P08575 whole entry): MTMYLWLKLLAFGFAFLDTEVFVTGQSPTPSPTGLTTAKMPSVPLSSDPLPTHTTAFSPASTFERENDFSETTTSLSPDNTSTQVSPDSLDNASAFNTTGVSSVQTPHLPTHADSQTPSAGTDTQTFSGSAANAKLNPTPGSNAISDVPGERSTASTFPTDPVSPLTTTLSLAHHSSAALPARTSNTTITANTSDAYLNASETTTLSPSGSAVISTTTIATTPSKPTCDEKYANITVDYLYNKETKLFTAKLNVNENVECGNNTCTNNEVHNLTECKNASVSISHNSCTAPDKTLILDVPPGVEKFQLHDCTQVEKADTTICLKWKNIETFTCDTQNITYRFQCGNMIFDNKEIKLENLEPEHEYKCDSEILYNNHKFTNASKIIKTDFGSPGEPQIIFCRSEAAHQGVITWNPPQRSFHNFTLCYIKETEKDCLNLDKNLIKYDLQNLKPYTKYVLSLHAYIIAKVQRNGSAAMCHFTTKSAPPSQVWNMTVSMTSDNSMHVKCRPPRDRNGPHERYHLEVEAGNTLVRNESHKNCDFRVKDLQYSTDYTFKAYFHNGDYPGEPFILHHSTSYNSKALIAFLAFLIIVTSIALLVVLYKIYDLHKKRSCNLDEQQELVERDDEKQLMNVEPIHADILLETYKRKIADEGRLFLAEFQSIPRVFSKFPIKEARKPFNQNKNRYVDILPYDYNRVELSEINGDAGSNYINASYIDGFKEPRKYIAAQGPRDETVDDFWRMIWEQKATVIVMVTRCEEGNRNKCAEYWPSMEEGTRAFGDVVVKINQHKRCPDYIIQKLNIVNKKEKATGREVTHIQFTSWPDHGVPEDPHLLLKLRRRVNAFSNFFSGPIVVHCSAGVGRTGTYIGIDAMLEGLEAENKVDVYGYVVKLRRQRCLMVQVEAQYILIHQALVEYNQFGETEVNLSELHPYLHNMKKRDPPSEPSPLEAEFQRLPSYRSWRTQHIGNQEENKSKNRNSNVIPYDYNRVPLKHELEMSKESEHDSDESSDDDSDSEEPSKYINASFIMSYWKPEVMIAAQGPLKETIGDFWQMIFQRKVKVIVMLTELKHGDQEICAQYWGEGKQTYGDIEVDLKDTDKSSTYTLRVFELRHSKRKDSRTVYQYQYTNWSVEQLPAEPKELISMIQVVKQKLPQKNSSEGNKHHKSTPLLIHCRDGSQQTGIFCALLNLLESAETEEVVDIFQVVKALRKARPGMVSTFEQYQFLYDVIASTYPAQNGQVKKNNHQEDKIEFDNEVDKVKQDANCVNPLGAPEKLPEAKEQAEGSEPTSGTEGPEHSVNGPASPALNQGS

[6] = target: T2, Angiotensin-converting enzyme (Oryctolagus cuniculus, UniProt P12822); assay type: tissue-based, Lung;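 also: enzymatic inhibition of angiotensin-converting enzyme measured with FAPGG as the substrate; in other assays of this panel Not Active means under 50% inhibition at 10 µM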
T2 sequence (P12822 whole entry): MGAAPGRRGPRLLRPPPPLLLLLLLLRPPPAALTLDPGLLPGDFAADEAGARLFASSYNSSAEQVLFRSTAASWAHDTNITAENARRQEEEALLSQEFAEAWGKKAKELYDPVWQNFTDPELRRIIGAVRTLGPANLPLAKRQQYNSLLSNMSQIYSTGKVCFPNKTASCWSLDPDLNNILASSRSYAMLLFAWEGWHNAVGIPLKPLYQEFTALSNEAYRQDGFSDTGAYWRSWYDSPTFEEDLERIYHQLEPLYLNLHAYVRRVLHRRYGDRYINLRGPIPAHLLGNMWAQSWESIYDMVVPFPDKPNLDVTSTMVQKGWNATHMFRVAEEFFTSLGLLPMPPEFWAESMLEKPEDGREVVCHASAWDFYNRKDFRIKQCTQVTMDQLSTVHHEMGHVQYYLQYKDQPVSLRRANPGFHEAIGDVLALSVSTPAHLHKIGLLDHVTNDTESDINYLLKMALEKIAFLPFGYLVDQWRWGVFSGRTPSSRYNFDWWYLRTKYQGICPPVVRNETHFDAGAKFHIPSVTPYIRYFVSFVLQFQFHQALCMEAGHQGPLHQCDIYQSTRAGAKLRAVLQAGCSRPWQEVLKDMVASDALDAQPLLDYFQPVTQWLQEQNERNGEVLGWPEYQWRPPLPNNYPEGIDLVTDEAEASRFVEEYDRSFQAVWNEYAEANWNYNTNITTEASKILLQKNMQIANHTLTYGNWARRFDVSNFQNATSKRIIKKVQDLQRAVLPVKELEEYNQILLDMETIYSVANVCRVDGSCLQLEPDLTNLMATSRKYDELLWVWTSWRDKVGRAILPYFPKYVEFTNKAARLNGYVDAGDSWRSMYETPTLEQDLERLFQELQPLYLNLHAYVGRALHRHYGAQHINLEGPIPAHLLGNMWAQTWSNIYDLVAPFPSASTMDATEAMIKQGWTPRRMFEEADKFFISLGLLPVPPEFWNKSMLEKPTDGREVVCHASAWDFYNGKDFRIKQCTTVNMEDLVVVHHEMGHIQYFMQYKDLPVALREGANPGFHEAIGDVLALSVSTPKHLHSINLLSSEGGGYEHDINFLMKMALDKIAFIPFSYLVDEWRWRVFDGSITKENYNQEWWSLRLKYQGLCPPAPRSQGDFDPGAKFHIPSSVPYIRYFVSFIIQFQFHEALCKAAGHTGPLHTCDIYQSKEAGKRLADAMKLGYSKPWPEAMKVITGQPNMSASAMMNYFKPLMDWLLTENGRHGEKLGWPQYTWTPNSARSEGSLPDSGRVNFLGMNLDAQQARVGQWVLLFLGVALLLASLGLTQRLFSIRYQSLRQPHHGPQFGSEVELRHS

[7] = target: Aldo-keto reductase family 1 member B1 (Rattus norvegicus, UniProt P07943); assay: biochemical; assay type: tissue-based, Lens of camera-type eye

Melanocortin receptor 4, sequence (P32245 whole entry): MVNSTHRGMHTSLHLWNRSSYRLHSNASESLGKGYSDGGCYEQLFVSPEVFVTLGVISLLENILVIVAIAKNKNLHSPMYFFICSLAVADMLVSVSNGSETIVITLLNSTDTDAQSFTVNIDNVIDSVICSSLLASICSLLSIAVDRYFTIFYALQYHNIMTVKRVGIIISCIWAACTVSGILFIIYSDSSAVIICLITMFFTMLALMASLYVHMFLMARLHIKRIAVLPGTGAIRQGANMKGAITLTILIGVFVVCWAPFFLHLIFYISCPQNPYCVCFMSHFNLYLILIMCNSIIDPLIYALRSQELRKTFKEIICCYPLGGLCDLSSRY

Molecule	IC50 [1]	Ki [1]	IC50 [2]	IC50 [3]	IC50 [4]	Ki [4]	IC50 [5]	IC50 [6]	IC50 [7]	IC50 ([4]; read-out: IC50)	Ki ([4]; read-out: Ki)	Ki [2]	Ki [3]	Ki [5]	Ki [6]	Ki [7]
CCn1cc(C(=O)O)c(=O)c2cc(F)c(N3CCN(C)CC3)cc21 [PEFLOXACIN]	Not Active	Not Active	Not Active	Not Active	Not Active	Not Active	Not Active	Not Active	Not Active							
CCCCOc1ccc(OCCCN2CCOCC2)cc1 [PRAMOXINE]	Not Active	Not Active	Not Active	Not Active	Not Active	Not Active	Not Active	Not Active	Not Active							
O=C(C1CCCCC1)N1CC(=O)N2CCc3ccccc3C2C1 (centres undefined) [PRAZIQUANTEL]	Not Active	Not Active	Not Active	Not Active	Not Active	Not Active	Not Active	Not Active	Not Active							
CCN(CC)CCOC(=O)c1ccc(N)cc1 [PROCAINE]	Not Active	Not Active	Not Active	Not Active	Not Active	Not Active	Not Active	Not Active	Not Active							
CCCN(CCC)C(=O)C(CCC(=O)O)NC(=O)c1ccccc1 (centres undefined) [PROGLUMIDE]	Not Active	Not Active	Not Active	Not Active	Not Active	Not Active	Not Active	Not Active	Not Active							
NC(=O)c1cnccn1 [PYRAZINAMIDE]	Not Active	Not Active	Not Active	Not Active	Not Active	Not Active	Not Active	Not Active	Not Active							
OC(CCN1CCCCC1)(c1ccccc1)C1CCCCC1 (centres undefined) [TRIHEXYPHENIDYL]	Not Active	Not Active	Not Active	Not Active			Not Active	Not Active	Not Active	4.81 µM	4.28 µM					
Cc1cc2cc3c(C)cc(=O)oc3c(C)c2o1 [TRIOXSALEN]	Not Active	Not Active	Not Active	Not Active	Not Active	Not Active	Not Active	Not Active	Not Active							
CCCC(CCC)C(=O)O [VALPROIC ACID]	Not Active	Not Active	Not Active	Not Active	Not Active	Not Active	Not Active	Not Active	Not Active							
CCC1=C[C@@H]2CN(C1)Cc1c([nH]c3ccccc13)[C@@](C(=O)OC)(c1cc3c(cc1OC)N(C)[C@H]1[C@@](O)(C(=O)OC)[C@H](OC(C)=O)[C@]4(CC)C=CCN5CC[C@]31[C@@H]54)C2 [VINORELBINE]	Not Active	Not Active	Not Active	Not Active	Not Active	Not Active	Not Active	Not Active	Not Active							
CADMIUM DICHLORIDE	Not Active	Not Active	Not Active	Not Active	Not Active	Not Active	Not Active	Not Active	Not Active			Not Active	Not Active	Not Active	Not Active	Not Active
